Source: article PMC10375533, “Preference of Bacterial Rhamnosyltransferases for 6-Deoxysugars Reveals a Strategy To Deplete O-Antigens” (Journal of the American Chemical Society, 2023)
Several values for one entry are separate records, joined by “and”; a condition that tells them apart may be missing. Equal values may be shown once. Read-outs that look alike come from different tables or passages of the source.

Key:
[1] = system: E. coli cells with or without wbbL; test: Growth inhibition / toxicity of 2 with E. coli (OD600); settings: ~2 mM / low millimolar concentrations of 2, E. coli +/- wbbL
[2] = system: WbbL-dependent O-Ag synthesis in E. coli expressing wbbL; type: cell-based, Escherichia coli
[3] = biological target: T. thermophilus RfbF (Thermus thermophilus, UniProt Q72KB9); test: Isothermal titration calorimetry (ITC) binding measurements with RfbF; settings: ITC
Sequence of T. thermophilus RfbF (Q72KB9 entry or part of it): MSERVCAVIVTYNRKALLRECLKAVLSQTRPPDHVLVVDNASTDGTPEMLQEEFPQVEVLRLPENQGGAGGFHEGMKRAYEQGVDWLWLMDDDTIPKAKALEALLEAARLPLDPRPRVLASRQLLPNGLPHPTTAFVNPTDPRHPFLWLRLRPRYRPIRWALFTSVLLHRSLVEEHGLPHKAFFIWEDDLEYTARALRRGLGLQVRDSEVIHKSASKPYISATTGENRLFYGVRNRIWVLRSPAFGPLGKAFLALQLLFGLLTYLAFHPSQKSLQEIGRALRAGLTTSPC

[4] = biological target: E. coli WbbL (Escherichia coli, UniProt P36667); test: In vitro inhibition assay of E. coli WbbL with monosaccharides and compound 2; type: biochemical; settings: 250 µM dTDP-β-L-Rha, 1 mM GlcNAc-PP-undecaprenol
Sequence of E. coli WbbL (P36667 whole entry, looked up): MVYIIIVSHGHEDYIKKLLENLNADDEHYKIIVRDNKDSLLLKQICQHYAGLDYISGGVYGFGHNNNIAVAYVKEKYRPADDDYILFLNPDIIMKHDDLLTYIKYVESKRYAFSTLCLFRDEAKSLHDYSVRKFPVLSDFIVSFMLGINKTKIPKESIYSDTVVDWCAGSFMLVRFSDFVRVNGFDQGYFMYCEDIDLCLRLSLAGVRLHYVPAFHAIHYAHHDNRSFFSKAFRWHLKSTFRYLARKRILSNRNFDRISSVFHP
Description: Primers were purchased from Invitrogen and sequencing was completed by GENEWIZ (Azenta) or EtonBio. Chemicals were purchased from Sigma Aldrich, CarboSynth, Fisher Scientific, and Cayman without further purification. 1H, 13C, and 31P NMR spectra were recorded on a Bruker Avance III 400, 500, or 600 MHz instrument. All spectra were calibrated using residual non-deuterated solvent as an internal reference and processed using MestReNova (authorized to NYU). Gel filtration purification and analyses was performing using at AKTA pure 15 L instrument (UNICORN™ software, GE Healthcare). HRMS analyses were acquired on an Agilent 6224 Accurate-Mass time-of-flight LC/MS (LC-TOF) spectrometer equipped with an electrospray ionization (ESI) source with an autosampler. GraphPad Prism software 9.0 was used for all plotting and data analysis unless otherwise noted. Statistical significance of grouped data was assessed using paired t-tests in Prism. For the IC50 calculation, data were fit in Prism using the equation log(inhibitor) versus response (three parameters): y = bottom + (top-bottom)/(1+10^(X-log IC50)) based on the assumption the Hill slope would be 1, as predicted by ITC results with n ~ 1 for donor ligands. Data was normalized to controls without enzyme and with no inhibitor added. Confidence intervals were calculated based on the standard error. 1M TEAB buffer was prepared by suspending triethylamine (1 mol, 139 mL) in water (700 mL) and passing carbon dioxide (from evaporated dry ice) through the mixture until the pH=7.5. The buffer was diluted to 1L and stored as a stock solution at 4 °C. Prior to use it was diluted to 50 mM in deionized H2O […]
Methods for protein and cellular biochemistry/bioinformatics used in this study.
Bioinformatic approach to identify Thermus thermophilus RfbF as a putative glycolipid RT.
The Carbohydrate-Active Enzymes Database (CAZy.org) was used to identify thermophilic organisms with annotated glycosyltransferases (GTs).11-12 Genes annotated as wbbL have been experimentally shown to encode dTDP-rhamnosyltransferases that transfer L-Rha onto N-acetyl--a-D-glucosamine-1-diphospholipid acceptors.13-14 In Shigella flexneri, the protein encoded by rfbF was noted to carry out the same biochemical activity as WbbL based on genetic and LPS analyses.15-16 Both E. coli WbbL and S. flexneri RfbF belong to the GT2 family. A CAZy search for rfbF and wbbL was performed in the genomes of Gram-negative extreme thermophiles, which […]
(GenBank: AAS80876.1), which had not yet been biochemically characterized. Protein ANalysis […]
thermodynamic values were evaluated using ITCRun software (TA Instruments) and fit with a […]
Specific activities were determined by modification of the protocol outlined by Li et al. […]

[5] = system: crude Mtb WbbL; settings: cited from earlier work
[6] = 25 °C, ligand titrated into 110 µM RfbF

Row | Compound | toxicity to E. coli (growth, OD600) [1] | reduction of O-Ag levels by densitometry ([2]; E. coli expressing wbbL grown with 2 versus untreated, silver stain / anti-O16 blot of purified LPS) | reduction of LPS produced versus untreated cells ([2]; E. coli expressing wbbL grown with ~2 mM 2, equivalent number of cells, mass of extracted LPS) | binding to RfbF by ITC (in words) ([3]; ligand titrated into 110 µM RfbF) | Kd ([3]; KD (beyond measurable limit), 5-10 mM ligand titrated into 110 µM RfbF) | IC50 ([4]; 0.0101 mg/mL E. coli WbbL, 95% confidence interval, read-out: half maximal inhibitory concentration (IC50)) | inhibition at 5000 µM ([4]; 5 mM inhibitor, 8 min) | Km [5] | ΔG [3, 6] | ΔH [3, 6] | ΔS [3, 6] | Kd ([3]; 25 °C, ligand titrated into 110 µM RfbF, one-site model, spread = SD, triplicate, read-out: KD) | Kd ([3]; KD, 25 °C, ligand titrated into 110 µM RfbF, one-site model, spread = SD, triplicate)
1 | C[C@@H]1NC[C@H](O)[C@H](O)[C@H]1O [compound 2, 1,5-dideoxy-1,5-imino-L-rhamnitol] | not toxic | ~40% | > 50% | no measurable binding | > 1000 µM | ~3000 µM and 3160 µM | ~53% | – | – | – | – | – | –
2 | Cc1cn(C2CC(O)C(COP(=O)(O)OP(=O)(O)OC3OC(C)C(O)C(O)C3O)O2)c(=O)[nH]c1=O [dTDP-β-L-Rha, reference compound] | – | – | – | – | – | – | – | ~35 µM | -6.77 (.38) kcal/mol | -8.68 (0.59) kcal/mol | -6.43 (0.68) cal/mol·K | ~8 µM | 8.31 ± 3.66 µM
